Test results taken from patent US20060111305A1, “Metabolites of certain [1,4]diazepino[6,7,1-ij]quinoline derivatives and methods of preparation and use thereof” (Wyeth, priority 2004, published 2006).
Where “and” joins values, the source holds several entries; their conditions need not be identical. Equal values may be shown once.

Columns and labels:
[1] = dogs; cited from earlier work
[2] = Rat blood and plasma radioactivity concentrations after single oral 5 mg/kg [14C]DCDQ; format: in vivo, Sprague-Dawley rats; settings: for Blood concentration of radioactivity, individuals / Plasma concentration of radioactivity, individuals: 5 mg/kg
Description: Dose preparation, animal dosing, and specimen collection were performed at Wyeth Research, Collegeville, Pa. The dose vehicle contained 2% (w/w) Tween 80 and 0.5% methylcellulose in water. […] Male rats weighing from 318 to 345 grams and female rats weighing from 227 to 255 grams at the time of dosing were purchased from Charles River Laboratories, Wilmington, Mass. Non-fasted rats were given a single 5 mg/kg (˜300 μCi/kg) dose of DCDQ at a volume of 2.5 mL/kg via intragastric gavage. Animals were provided Purina rat chow and water ad libitum, and were kept individually in metabolism cages. Male rats were sacrificed at 2, 4, 8 and 24 hour after dose administration. Female rats were sacrificed at 2 and 8 hour after dose administration. At sacrifice, blood samples were collected by cardiac puncture into tubes containing EDTA as the anticoagulant and placing them on ice. Aliquots of 50 μL were removed for combustion and determination of radioactivity content. Plasma was immediately obtained from the remaining blood by centrifugation at 4° C. Brains were excised after perfusion with 50 mL of chilled sterile saline. Urine samples were collected on dry ice at intervals of 0-8 and 8-24 hour post-dosing. Feces were collected at intervals of 0-8 and 8-24 hr post-dosing at room temperature and were homogenized as described previously. The biological specimens and aliquots of the dosing solution at pre- and post-dose were stored at approximately −70° C. until analyzed. Plasma (20 μL) and urine (50 μL) aliquots were analyzed for radioactivity concentrations. Radioactivity determinations of dose, plasma and urine were made with a Tri-Carb Model 3100 TR/LL liquid scintillation counter (LSC) (Perkin Elmer) using 10 mL of Ultima Gold as the scintillation fluid. […] Blood aliquots (50 μL), brain homogenates (0.1 gram) and fecal homogenates (0.2 gram) were placed on Combusto-cones with Combusto-pads and combusted. A model 307 Tri-Carb Sample Oxidizer, equipped with an Oximate-80 Robotic Automatic Sampler (Perkin Elmer), was used for combustion. The liberated ^14CO2 was trapped with Carbo-Sorb E carbon dioxide absorber, mixed with PermaFluor® E+ liquid scintillation cocktail, and counted in a Tri-Carb Model 3100 TR/LL liquid scintillation counter (Perkin Elmer). The oxidation efficiency of the oxidizer was 98.2%.

c1cc2c3c(c1)[C@H]1CCC[C@H]1CN3CCNC2 [DCDQ, (9aR,12aS)-4,5,6,7,9,9a,10,11,12,12a-decahydro-cyclopenta[c][1,4]diazepine[6,7,1-ij]quinoline, reference compound]
oral bioavailability [1]: approximately 25.4%

c1cc2c3c(c1)[C@H]1CCC[C@H]1CN3CCNC2 [[^14C]DCDQ]
Blood concentration of radioactivity, Mean ± SD ([2]; female rats, 2 hr): 697 ± 219 ng equivalents/mL
Plasma concentration of radioactivity, Mean ± SD ([2]; female rats, 2 hr): 658 ± 189 ng equivalents/mL
Blood concentration of radioactivity, individuals ([2]; female rats, 2 hr): 661 ng equivalents/mL and 932 ng equivalents/mL and 499 ng equivalents/mL
Plasma concentration of radioactivity, individuals ([2]; female rats, 2 hr): 635 ng equivalents/mL and 857 ng equivalents/mL and 481 ng equivalents/mL
Blood concentration of radioactivity, Mean ± SD ([2]; female rats, 8 hr): 307 ± 68.4 ng equivalents/mL
Plasma concentration of radioactivity, Mean ± SD ([2]; female rats, 8 hr): 338 ± 60.7 ng equivalents/mL
Blood concentration of radioactivity, individuals ([2]; female rats, 8 hr): 413 ng equivalents/mL and 292 ng equivalents/mL and 406 ng equivalents/mL
Plasma concentration of radioactivity, individuals ([2]; female rats, 8 hr): 362 ng equivalents/mL and 269 ng equivalents/mL and 383 ng equivalents/mL
Blood concentration of radioactivity, Mean ± SD ([2]; male rats, 2 hr): 706 ± 158 ng equivalents/mL
Plasma concentration of radioactivity, Mean ± SD ([2]; male rats, 2 hr): 632 ± 144 ng equivalents/mL
Blood concentration of radioactivity, individuals ([2]; male rats, 2 hr): 606 ng equivalents/mL and 624 ng equivalents/mL and 888 ng equivalents/mL
Plasma concentration of radioactivity, individuals ([2]; male rats, 2 hr): 567 ng equivalents/mL and 531 ng equivalents/mL and 797 ng equivalents/mL
Blood concentration of radioactivity, Mean ± SD ([2]; male rats, 4 hr): 704 ± 18.7 ng equivalents/mL
Plasma concentration of radioactivity, Mean ± SD ([2]; male rats, 4 hr): 659 ± 16.5 ng equivalents/mL
Blood concentration of radioactivity, individuals ([2]; male rats, 4 hr): 698 ng equivalents/mL and 725 ng equivalents/mL and 689 ng equivalents/mL
Plasma concentration of radioactivity, individuals ([2]; male rats, 4 hr): 678 ng equivalents/mL and 652 ng equivalents/mL and 647 ng equivalents/mL
Blood concentration of radioactivity, Mean ± SD ([2]; male rats, 8 hr): 525 ± 45.3 ng equivalents/mL
Plasma concentration of radioactivity, Mean ± SD ([2]; male rats, 8 hr): 465 ± 43.1 ng equivalents/mL
Blood concentration of radioactivity, individuals ([2]; male rats, 8 hr): 538 ng equivalents/mL and 475 ng equivalents/mL and 562 ng equivalents/mL
Plasma concentration of radioactivity, individuals ([2]; male rats, 8 hr): 487 ng equivalents/mL and 415 ng equivalents/mL and 492 ng equivalents/mL
Blood concentration of radioactivity, Mean ± SD ([2]; male rats, 24 hr): 68.0 ± 10.0 ng equivalents/mL
Plasma concentration of radioactivity, Mean ± SD ([2]; male rats, 24 hr): 46.9 ± 8.30 ng equivalents/mL
Blood concentration of radioactivity, individuals ([2]; male rats, 24 hr): 66.5 ng equivalents/mL and 58.9 ng equivalents/mL and 78.7 ng equivalents/mL
Plasma concentration of radioactivity, individuals ([2]; male rats, 24 hr): 50.5 ng equivalents/mL and 37.4 ng equivalents/mL and 52.8 ng equivalents/mL
